Reference: patent US10160755B2 (Plexxikon Inc., priority 2015, dated 2018)

Experiments:
[1] = biological target: T1, FLT3-ITD (Homo sapiens, UniProt P36888); assay: FLT3-ITD biochemical kinase assay (AlphaScreen)
T1 construct: FLT3-ITD; Invitrogen #PV6190
T1 sequence (P36888 1-993): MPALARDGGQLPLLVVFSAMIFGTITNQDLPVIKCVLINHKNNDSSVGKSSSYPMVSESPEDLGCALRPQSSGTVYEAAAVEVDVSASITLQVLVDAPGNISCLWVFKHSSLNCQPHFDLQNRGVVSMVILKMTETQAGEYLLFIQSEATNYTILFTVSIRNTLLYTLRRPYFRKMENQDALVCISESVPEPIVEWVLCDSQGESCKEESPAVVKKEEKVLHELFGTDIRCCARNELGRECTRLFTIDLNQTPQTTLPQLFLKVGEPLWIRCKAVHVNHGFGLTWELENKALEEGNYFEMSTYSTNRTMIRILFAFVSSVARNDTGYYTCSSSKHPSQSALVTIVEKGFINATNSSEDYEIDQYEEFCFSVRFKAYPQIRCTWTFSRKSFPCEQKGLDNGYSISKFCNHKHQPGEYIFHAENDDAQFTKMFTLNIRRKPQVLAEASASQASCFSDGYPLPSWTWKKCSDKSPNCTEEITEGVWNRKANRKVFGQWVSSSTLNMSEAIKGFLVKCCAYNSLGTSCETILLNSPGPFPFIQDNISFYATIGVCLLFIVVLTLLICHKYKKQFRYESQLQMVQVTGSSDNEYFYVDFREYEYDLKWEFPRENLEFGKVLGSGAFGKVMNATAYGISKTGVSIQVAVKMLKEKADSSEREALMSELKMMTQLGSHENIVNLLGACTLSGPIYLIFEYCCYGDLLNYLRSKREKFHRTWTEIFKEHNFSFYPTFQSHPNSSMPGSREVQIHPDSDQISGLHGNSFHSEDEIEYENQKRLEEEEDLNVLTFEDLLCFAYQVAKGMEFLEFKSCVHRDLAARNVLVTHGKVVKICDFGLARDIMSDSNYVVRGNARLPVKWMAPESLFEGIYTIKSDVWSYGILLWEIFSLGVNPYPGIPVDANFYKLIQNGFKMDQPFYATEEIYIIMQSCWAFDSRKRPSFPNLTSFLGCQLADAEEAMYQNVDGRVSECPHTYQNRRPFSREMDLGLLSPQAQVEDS
How it was run: (§1)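 First, recombinant FLT3 variant phosphorylates a biotinylated poly(Glu4-Tyr) peptide (30 nM) with ATP at 10 μM (D835Y) or 100 μM (ITD). Streptavidin donor beads are then added for 20 min at room temperature, followed by anti-phosphotyrosine PY20 acceptor beads for 60 min. Signal at 580 nm gives IC50.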

[2] = biological target: T2, FLT3-D835Y (Homo sapiens, UniProt P36888, D835Y); assay: FLT3-D835Y biochemical kinase assay (AlphaScreen)
T2 construct: purchased Invitrogen PV3967
T2 sequence (P36888 27-993 D835Y): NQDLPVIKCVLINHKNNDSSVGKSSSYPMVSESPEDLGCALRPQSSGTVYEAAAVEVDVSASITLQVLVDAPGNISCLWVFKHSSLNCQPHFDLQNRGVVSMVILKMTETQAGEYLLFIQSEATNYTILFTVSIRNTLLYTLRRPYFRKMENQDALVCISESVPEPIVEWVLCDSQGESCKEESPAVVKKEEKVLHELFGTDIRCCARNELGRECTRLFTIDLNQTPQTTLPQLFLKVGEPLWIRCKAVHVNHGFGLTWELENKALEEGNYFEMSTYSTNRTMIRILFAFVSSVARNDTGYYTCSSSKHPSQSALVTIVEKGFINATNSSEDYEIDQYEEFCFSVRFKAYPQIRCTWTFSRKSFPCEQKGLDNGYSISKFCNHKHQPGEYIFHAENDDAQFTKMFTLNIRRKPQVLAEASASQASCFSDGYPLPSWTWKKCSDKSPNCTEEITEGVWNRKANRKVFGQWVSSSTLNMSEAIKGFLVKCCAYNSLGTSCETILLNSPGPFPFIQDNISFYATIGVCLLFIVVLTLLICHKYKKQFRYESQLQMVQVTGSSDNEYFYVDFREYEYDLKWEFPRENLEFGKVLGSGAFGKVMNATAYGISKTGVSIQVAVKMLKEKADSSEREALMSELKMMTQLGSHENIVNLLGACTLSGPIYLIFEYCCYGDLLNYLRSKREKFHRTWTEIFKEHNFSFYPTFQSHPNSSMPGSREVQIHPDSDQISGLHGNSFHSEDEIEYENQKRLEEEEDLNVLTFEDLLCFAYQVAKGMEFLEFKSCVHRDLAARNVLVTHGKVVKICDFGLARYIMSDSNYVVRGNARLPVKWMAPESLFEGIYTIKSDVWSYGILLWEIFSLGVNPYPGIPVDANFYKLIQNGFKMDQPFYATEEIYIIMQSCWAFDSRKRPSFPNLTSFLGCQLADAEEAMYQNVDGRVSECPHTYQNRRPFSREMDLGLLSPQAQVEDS
How it was run: as §1

SMILES	IC50 [1]	IC50 [2]
CC(C)(C)n1cnc2ccc(-c3c[nH]c4ncc(-c5cccc(N6CCOCC6)c5)cc34)cc21 [P-316, 4-[3-[3-(3-tert-butylbenzimidazol-5-yl)-1H-pyrrolo[2,3-b]pyridin-5-yl]phenyl]morpholine]	0.0001 to 1 µM	0.0001 to 1 µM
CC(C)(C)n1cnc2ccc(-c3c[nH]c4ncc(-c5cnc(C#N)nc5)nc34)cc21 [P-352, 5-[7-(3-tert-butylbenzimidazol-5-yl)-5H-pyrrolo[2,3-b]pyrazin-2-yl]pyrimidine-2-carbonitrile]	0.0001 to 1 µM	0.0001 to 1 µM
COc1cc(-c2cnc3[nH]cc(-c4ccc5ncn(C6(C(F)(F)F)CC6)c5c4)c3n2)ccn1 [P-312, 2-(2-methoxy-4-pyridyl)-7-[3-[1-(trifluoromethyl)cyclopropyl]benzimidazol-5-yl]-5H-pyrrolo[2,3-b]pyrazine]	0.0001 to 1 µM	0.0001 to 1 µM
CC(C)(C)n1cnc2ccc(-c3c[nH]c4ncc(-c5cnc(O)nc5)nc34)cc21 [P-363, 5-[7-(3-tert-butylbenzimidazol-5-yl)-5H-pyrrolo[2,3-b]pyrazin-2-yl]pyrimidin-2-ol]	0.0001 to 1 µM	0.0001 to 1 µM
CC(C)(C)n1cnc2ccc(-c3c[nH]c4ncc(-c5ccnc(N6CCCCS6(=O)=O)c5)nc34)cc21 [P-309, 2-[4-[7-(3-tert-butylbenzimidazol-5-yl)-5H-pyrrolo[2,3-b]pyrazin-2-yl]-2-pyridyl]thiazinane 1,1-dioxide]	0.0001 to 1 µM	0.0001 to 1 µM
CC(C)(C)n1cnc2ccc(-c3c[nH]c4ncc(-c5ccc(N6CCCCC6)cc5)nc34)cc21 [P-345, 7-(3-tert-butylbenzimidazol-5-yl)-2-[4-(1-piperidyl)phenyl]-5H-pyrrolo[2,3-b]pyrazine]	0.0001 to 1 µM	0.0001 to 1 µM
Cc1ccc(-c2cnc3[nH]cc(-c4ccc5ncn(C(C)(C)C)c5c4)c3n2)cn1 [P-388, 7-(3-tert-butylbenzimidazol-5-yl)-2-(6-methyl-3-pyridyl)-5H-pyrrolo[2,3-b]pyrazine]	0.0001 to 1 µM	0.0001 to 1 µM
CCN1CCN(c2cccc(-c3cnc4[nH]cc(-c5ccc6ncn(C7CCCNC7)c6c5)c4n3)c2)CC1 (centres unmarked) [P-329, 2-[3-(4-ethylpiperazin-1-yl)phenyl]-7-[3-(3-piperidyl)benzimidazol-5-yl]-5H-pyrrolo[2,3-b]pyrazine]	0.0001 to 1 µM	0.0001 to 1 µM
CN1CCN(c2ccc(-c3cnc4[nH]cc(-c5ccc6ncn(C7CCCNC7)c6c5)c4n3)cc2)CC1 (centres unmarked) [P-344, 2-[4-(4-methylpiperazin-1-yl)phenyl]-7-[3-(3-piperidyl)benzimidazol-5-yl]-5H-pyrrolo[2,3-b]pyrazine]	0.0001 to 1 µM	0.0001 to 1 µM
c1nc(N2CCOCC2)ncc1-c1cnc2[nH]cc(-c3ccc4ncn(C5CCCNC5)c4c3)c2c1 (centres unmarked) [P-277, 4-[5-[3-[3-(3-piperidyl)benzimidazol-5-yl]-1H-pyrrolo[2,3-b]pyridin-5-yl]pyrimidin-2-yl]morpholine]	0.0001 to 1 µM	0.0001 to 1 µM
Cc1cc(C#Cc2cnc3[nH]cc(-c4ccc5ncn(C6CCCNC6)c5c4)c3n2)cc(C)n1 (centres unmarked) [P-283, 2-[2-(2,6-dimethyl-4-pyridyl)ethynyl]-7-[3-(3-piperidyl)benzimidazol-5-yl]-5H-pyrrolo[2,3-b]pyrazine]	0.0001 to 1 µM	0.0001 to 1 µM
COc1cnc2[nH]cc(-c3ccc4ncn(C5CCCNC5)c4c3)c2c1 (centres unmarked) [P-079, 5-methoxy-3-[3-(3-piperidyl)benzimidazol-5-yl]-1H-pyrrolo[2,3-b]pyridine]	0.0001 to 1 µM	0.0001 to 1 µM
COc1cnc2[nH]cc(-c3ccc4ncn(C5CCC5)c4c3)c2c1 [P-061, 1-cyclobutyl-6-(5-methoxy-1H-pyrrolo[2,3-b]pyridin-3-yl)benzimidazole]	0.0001 to 1 µM	0.0001 to 1 µM
CC(C)(C)n1cnc2ccc(-c3c[nH]c4ncc(-c5cccc(N6CCCS6(=O)=O)c5)cc34)cc21 [P-278, 2-[3-[3-(3-tert-butylbenzimidazol-5-yl)-1H-pyrrolo[2,3-b]pyridin-5-yl]phenyl]-1,2-thiazolidine 1,1-dioxide]	0.0001 to 1 µM	0.0001 to 1 µM
COc1cc(C#Cc2cnc3[nH]cc(-c4ccc5ncn(C(C)(C)C)c5c4)c3n2)ccn1 [P-279, 7-(1-(tert-butyl)-1H-benzo[d]imidazol-6-yl)-2-((2-methoxypyridin-4-yl)ethynyl)-5H-pyrrolo[2,3-b]pyrazine]	0.0001 to 1 µM	0.0001 to 1 µM
CC(C)(C)n1cnc2ccc(-c3c[nH]c4ncc(-c5cnc(N6CCC(F)(F)CC6)nc5)nc34)cc21 [P-357, 7-(3-tert-butylbenzimidazol-5-yl)-2-[2-(4,4-difluoro-1-piperidyl)pyrimidin-5-yl]-5H-pyrrolo[2,3-b]pyrazine]	0.0001 to 1 µM	0.0001 to 1 µM
CC(C)(C)n1cnc2ccc(-c3c[nH]c4ncc(-c5ccc(C#N)nc5)cc34)cc21 [P-290, 5-[3-(3-tert-butylbenzimidazol-5-yl)-1H-pyrrolo[2,3-b]pyridin-5-yl]pyridine-2-carbonitrile]	0.0001 to 1 µM	0.0001 to 1 µM
CC(C)(C)n1cnc2ccc(-c3c[nH]c4nnc(Cl)cc34)cc21 [P-314, 5-(3-tert-butylbenzimidazol-5-yl)-3-chloro-7H-pyrrolo[2,3-c]pyridazine]	0.0001 to 1 µM	0.0001 to 1 µM
CC(C)(C)n1cnc2ccc(-c3c[nH]c4ncc(-c5ccc(N6CCCCC6)nc5)nc34)cc21 [P-347, 7-(1-(tert-butyl)-1H-benzo[d]imidazol-6-yl)-2-(6-(piperidin-1-yl)pyridin-3-yl)-5H-pyrrolo[2,3-b]pyrazine]	0.0001 to 1 µM	0.0001 to 1 µM
CCN1CCN(c2cccc(-c3cnc4[nH]cc(-c5ccc6ncn(C(C)(C)C)c6c5)c4n3)c2)CC1 [P-330, 7-(3-tert-butylbenzimidazol-5-yl)-2-[3-(4-ethylpiperazin-1-yl)phenyl]-5H-pyrrolo[2,3-b]pyrazine]	0.0001 to 1 µM	0.0001 to 1 µM
c1cc(N2CCCCC2)ncc1-c1cnc2[nH]cc(-c3ccc4ncn(C5CCCNC5)c4c3)c2n1 (centres unmarked) [P-348, 7-[3-(3-piperidyl)benzimidazol-5-yl]-2-[6-(1-piperidyl)-3-pyridyl]-5H-pyrrolo[2,3-b]pyrazine]	0.0001 to 1 µM	0.0001 to 1 µM
CN1CCN(c2cccc(-c3cnc4[nH]cc(-c5ccc6ncn(C(C)(C)C)c6c5)c4n3)c2)CC1 [P-331, 7-(3-tert-butylbenzimidazol-5-yl)-2-[3-(4-methylpiperazin-1-yl)phenyl]-5H-pyrrolo[2,3-b]pyrazine]	0.0001 to 1 µM	0.0001 to 1 µM
